Test results reported in PMC4306921 (Scientific Reports, 2015).
Values belong to the compound of their own block, whether it stands above or below them.

Assays:
Format in all cases: cell-based
293T cells = conditions: no receptor plasmid, 10 μM 5-HT, 12–24 h
CHO-K1 cells = conditions: CHO-K1, no receptor plasmid, 10 μM 5-HT, 12–24 h
5-HT2A receptor = 5-HT2A receptor (Homo sapiens, UniProt P28223); assay: CRE-luc luciferase reporter gene assay, 5-HT2A transfected CHO-K1 cells; conditions: 5-HT2A transfected cells, 0.1 μM antagonist, 5-HT lower than 1 μM
adenylyl cyclase = assay: FSK stimulation in the CRE-luc reporter gene assay system; conditions: read-out: EC50 value of FSK in reporter gene assay system; data not shown

Chain of 5-HT2A receptor (P28223 whole entry): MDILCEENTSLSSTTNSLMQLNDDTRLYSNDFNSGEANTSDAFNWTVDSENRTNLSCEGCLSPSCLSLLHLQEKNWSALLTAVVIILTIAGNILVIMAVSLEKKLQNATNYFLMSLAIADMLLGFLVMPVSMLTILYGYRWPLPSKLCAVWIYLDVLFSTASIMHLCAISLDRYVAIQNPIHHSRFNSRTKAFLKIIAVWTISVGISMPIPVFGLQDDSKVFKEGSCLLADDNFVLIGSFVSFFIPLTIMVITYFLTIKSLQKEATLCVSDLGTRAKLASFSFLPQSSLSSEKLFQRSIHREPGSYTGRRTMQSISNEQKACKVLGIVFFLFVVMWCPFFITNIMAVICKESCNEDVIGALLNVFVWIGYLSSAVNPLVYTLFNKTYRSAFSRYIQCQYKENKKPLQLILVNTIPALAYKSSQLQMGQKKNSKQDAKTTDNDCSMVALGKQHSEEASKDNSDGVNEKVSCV

Structure (SMILES): NCCc1c[nH]c2ccc(O)cc12 [5-HT]
- nonspecific/endogenous activation of CRE-luc by 5-HT (293T cells): significantly expression of luciferase was detected
- nonspecific/endogenous activation of CRE-luc by 5-HT (CHO-K1 cells): no nonspecific and endogenous activation was observed

- suppression of luciferase reporter gene expression (5-HT2A receptor): significantly suppress
Structure (SMILES): CSc1ccc2c(c1)C(N1CCN(C)CC1)Cc1ccccc1S2 (stereo not shown) [Methiothepin]

- EC50 (adenylyl cyclase): 780 nM
Structure (SMILES): C=C[C@@]1(C)CC(=O)[C@]2(O)[C@@]3(C)[C@@H](O)CCC(C)(C)[C@@H]3[C@H](O)[C@H](OC(C)=O)[C@@]2(C)O1 [FSK]
